Assay results taken from ChEMBL document CHEMBL3044753, “Polyamines May Modulate Both G Protein-Coupled Receptors and G Proteins” (Med Chem Res, 2004).
The source made the active and inactive calls. The rule behind the calls is not given here.

Legend:
Left cardiac atrium [1] = assay: Negative ionotropic activity in electrically-paced Cavia porcellus (guinea pig) left atrium measured after 60 min by isometric transducer analysis in presence of thioperamide; format: functional, tissue-based
Left cardiac atrium [2] = assay: Negative ionotropic activity in electrically-paced Cavia porcellus (guinea pig) left atrium measured after 60 min by isometric transducer analysis in presence of pimozide; format: functional, tissue-based
Left cardiac atrium [3] = assay: Negative ionotropic activity in electrically-paced Cavia porcellus (guinea pig) left atrium measured after 60 min by isometric transducer analysis in presence of benextramine; format: functional, tissue-based
[4] = target: T1, Muscarinic acetylcholine receptor M2 (Homo sapiens) (UniProt P08172); assay: Allosteric modulation of Homo sapiens (human) recombinant muscarinic M2 receptor expressed in CHO cells assessed as inhibition of carbachol-induced [35S]GTPgammaS binding; format: functional, cell-based
T1 sequence (whole entry): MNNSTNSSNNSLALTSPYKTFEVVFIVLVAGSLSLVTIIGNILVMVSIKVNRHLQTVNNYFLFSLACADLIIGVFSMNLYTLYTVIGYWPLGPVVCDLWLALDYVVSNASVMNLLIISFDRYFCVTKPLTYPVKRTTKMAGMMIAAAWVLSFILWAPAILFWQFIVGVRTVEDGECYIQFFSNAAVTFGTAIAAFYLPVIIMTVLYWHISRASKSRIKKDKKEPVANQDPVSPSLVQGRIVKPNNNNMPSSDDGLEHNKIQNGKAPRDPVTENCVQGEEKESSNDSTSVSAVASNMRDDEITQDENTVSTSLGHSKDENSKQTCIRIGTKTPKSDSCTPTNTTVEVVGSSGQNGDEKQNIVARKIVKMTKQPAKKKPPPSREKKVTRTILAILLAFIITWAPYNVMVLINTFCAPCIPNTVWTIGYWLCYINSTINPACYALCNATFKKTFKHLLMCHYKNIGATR

[5] = target: T2, Muscarinic acetylcholine receptor M1 (Homo sapiens) (UniProt P11229); assay: Allosteric modulation of Homo sapiens (human) recombinant muscarinic M1 receptor expressed in CHO cells assessed as inhibition of carbachol-induced [35S]GTPgammaS binding; format: functional, cell-based
T2 sequence (whole entry): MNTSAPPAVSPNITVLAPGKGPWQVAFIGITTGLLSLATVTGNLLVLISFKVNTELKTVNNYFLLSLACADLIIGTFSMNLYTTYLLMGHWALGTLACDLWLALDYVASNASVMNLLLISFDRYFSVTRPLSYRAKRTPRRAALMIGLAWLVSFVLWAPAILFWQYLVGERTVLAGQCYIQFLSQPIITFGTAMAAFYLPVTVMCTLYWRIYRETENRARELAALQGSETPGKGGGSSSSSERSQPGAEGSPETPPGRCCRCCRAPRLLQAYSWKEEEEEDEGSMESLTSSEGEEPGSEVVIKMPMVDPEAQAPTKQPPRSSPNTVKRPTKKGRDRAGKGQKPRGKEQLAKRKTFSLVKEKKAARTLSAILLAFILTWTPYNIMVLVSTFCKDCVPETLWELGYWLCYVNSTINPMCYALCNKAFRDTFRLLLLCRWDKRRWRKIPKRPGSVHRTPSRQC

[6] = target: T3, Muscarinic acetylcholine receptor M5 (Homo sapiens) (UniProt P08912); assay: Binding affinity to Homo sapiens (human) recombinant muscarinic M5 receptor expressed in CHO cells assessed as [35S]GTPgammaS binding; format: functional, cell-based
T3 sequence (whole entry): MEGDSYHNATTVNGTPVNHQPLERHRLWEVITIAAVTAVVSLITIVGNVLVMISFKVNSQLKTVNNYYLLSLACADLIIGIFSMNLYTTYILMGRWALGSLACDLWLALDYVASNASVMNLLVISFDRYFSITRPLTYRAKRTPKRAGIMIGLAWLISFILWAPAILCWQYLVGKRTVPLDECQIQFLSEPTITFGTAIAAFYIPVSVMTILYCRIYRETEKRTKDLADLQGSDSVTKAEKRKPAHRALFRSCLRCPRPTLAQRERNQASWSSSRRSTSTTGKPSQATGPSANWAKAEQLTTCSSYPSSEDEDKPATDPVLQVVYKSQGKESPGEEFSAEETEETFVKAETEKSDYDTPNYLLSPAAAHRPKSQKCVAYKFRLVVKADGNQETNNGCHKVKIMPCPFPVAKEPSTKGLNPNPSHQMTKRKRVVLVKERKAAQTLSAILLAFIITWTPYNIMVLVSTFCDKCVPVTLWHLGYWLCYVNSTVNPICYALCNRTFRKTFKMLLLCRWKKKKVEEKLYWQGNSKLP

[7] = target: T1, Muscarinic acetylcholine receptor M2 (Homo sapiens); assay: Allosteric modulation of Homo sapiens (human) recombinant muscarinic M2 receptor expressed in CHO cells assessed as inhibition of N-[3H]methylscopalamine dissociation at 20 uM incubated at 1 hr post N-[3H]methylscopalamine addition measured after 5 min by filter binding assay; format: cell-based
[8] = target: T1, Muscarinic acetylcholine receptor M2 (Homo sapiens); assay: Allosteric modulation of Homo sapiens (human) recombinant muscarinic M2 receptor expressed in CHO cells assessed as inhibition of N-[3H]methylscopalamine dissociation incubated at 1 hr post N-[3H]methylscopalamine addition measured after 5 min by filter binding assay; format: cell-based
Right cardiac atrium [9] = assay: Negative ionotropic activity in electrically-paced Cavia porcellus (guinea pig) right atrium measured after 60 min by isometric transducer analysis in presence of benextramine; format: functional, tissue-based
Right cardiac atrium [10] = assay: Negative ionotropic activity in electrically-paced Cavia porcellus (guinea pig) right atrium measured after 60 min by isometric transducer analysis in presence of prazosin; format: functional, tissue-based
Right cardiac atrium [11] = assay: Negative ionotropic activity in electrically-paced Cavia porcellus (guinea pig) right atrium measured after 60 min by isometric transducer analysis in presence of AM 251; format: functional, tissue-based
Right cardiac atrium [12] = assay: Negative ionotropic activity in electrically-paced Cavia porcellus (guinea pig) right atrium measured after 60 min by isometric transducer analysis in presence of DPCPX; format: functional, tissue-based
[13] = target: T4, Muscarinic acetylcholine receptor M4 (Homo sapiens) (UniProt P08173); assay: Binding affinity to Homo sapiens (human) recombinant muscarinic M4 receptor expressed in CHO cells assessed as [35S]GTPgammaS binding; format: functional, cell-based
T4 sequence (whole entry): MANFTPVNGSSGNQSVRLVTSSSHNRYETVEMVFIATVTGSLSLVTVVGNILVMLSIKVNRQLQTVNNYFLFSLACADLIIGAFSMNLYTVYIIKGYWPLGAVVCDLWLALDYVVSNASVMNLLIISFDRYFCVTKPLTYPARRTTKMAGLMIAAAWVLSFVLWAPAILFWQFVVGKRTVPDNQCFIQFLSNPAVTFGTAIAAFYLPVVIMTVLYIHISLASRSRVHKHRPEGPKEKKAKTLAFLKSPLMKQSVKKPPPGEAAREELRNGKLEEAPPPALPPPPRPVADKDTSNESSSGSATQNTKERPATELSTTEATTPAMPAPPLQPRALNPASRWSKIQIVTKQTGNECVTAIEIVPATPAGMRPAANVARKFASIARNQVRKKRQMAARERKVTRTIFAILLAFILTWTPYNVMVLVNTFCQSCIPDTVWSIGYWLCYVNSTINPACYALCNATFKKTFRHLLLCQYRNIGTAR

[14] = target: T2, Muscarinic acetylcholine receptor M1 (Homo sapiens); assay: Binding affinity to Homo sapiens (human) recombinant muscarinic M1 receptor expressed in CHO cells assessed as [35S]GTPgammaS binding; format: functional, cell-based
Left cardiac atrium [15] = assay: Reversible negative ionotropic activity in electrically-paced Cavia porcellus (guinea pig) left atrium incubated for 30 min followed by compound-washout measured after 3 hr by isometric transducer analysis; format: functional, tissue-based

| SMILES | Activity (Left cardiac atrium [1]) | Activity (Left cardiac atrium [2]) | Activity (Left cardiac atrium [3]) | Activity [4] | Activity [5] | Activity [6] | inhibition [7] | INH [8] [µM] | Activity (Right cardiac atrium [9]) | Activity (Right cardiac atrium [10]) | Activity (Right cardiac atrium [11]) | Activity (Right cardiac atrium [12]) | Activity [13] | Activity [14] | Activity (Left cardiac atrium [15]) |
| --- | --- | --- | --- | --- | --- | --- | --- | --- | --- | --- | --- | --- | --- | --- | --- |
| COc1ccccc1CN1CCC(C2CCN(C(=O)CCCCCCC(=O)N3CCC(C4CCN(Cc5ccccc5OC)CC4)CC3)CC2)CC1 [PIPERTRAMINE AMIDE] | Active | Active | Active | Active | Active | inactive | Active | 1.71 | Active | Active | Active | Active | inactive | inactive | inactive |
| COc1ccccc1CN1CCC(C2CCN(CCCCCCCCN3CCC(C4CCN(Cc5ccccc5OC)CC4)CC3)CC2)CC1 [PIPERTRAMINE] | Active | Active | Active | Active | Active | inactive | Active | 1.57 | Active | Active | Active | Active | inactive | inactive | inactive |
